{
  "source": "patent US12662455B2",
  "about": "“Tetrahydrobenzo-quinoline sulfonamide derivatives useful as IgE modulators” (UCB Biopharma SRL, priority 2019, dated 2026)",
  "data": [
    {"target": "T1, IgE-Tb / soluble IgE receptor FcεRIα (Y131A mutation) (Homo sapiens, UniProt P01854, C105A/N146Q/N252Q)", "T1 construct": "86 nmoles of IgE-Fc(N265Q, N371Q) (Young et al., 1995)", "T1 sequence (P01854 104-428 isoform P01854-1 C105A/N146Q/N252Q)": "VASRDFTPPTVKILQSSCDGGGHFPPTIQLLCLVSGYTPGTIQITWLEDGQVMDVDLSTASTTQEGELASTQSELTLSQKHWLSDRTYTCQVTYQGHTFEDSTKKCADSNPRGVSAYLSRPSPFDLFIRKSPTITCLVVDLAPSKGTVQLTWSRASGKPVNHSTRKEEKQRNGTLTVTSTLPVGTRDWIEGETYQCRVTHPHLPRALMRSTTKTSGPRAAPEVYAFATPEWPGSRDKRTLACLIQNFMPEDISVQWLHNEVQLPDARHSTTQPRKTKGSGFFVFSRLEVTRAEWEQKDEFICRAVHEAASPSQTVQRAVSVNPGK", "assay": "in vitro FRET assay: binding of IgE-Tb to receptor FcεRIα-Y131A-AF488 and inhibition by compounds", "conditions": "5 nM IgE-Tb, 25 nM FcεRIα-Y131A-AF488, 2 hours at room temperature; read-out: FRET IC50 range", "experimental": "86 nmoles of IgE-Fc(N265Q, N371Q) (Young et al., 1995) at 172 μM in 100 mM NaHCO3, pH 9.5 was added to 1 mg of LanthaScreen™ Amine Reactive Tb Chelate (ThermoFisher catalogue number PV3583) and incubated for 16 hours at 20° C. The material was then buffer exchanged into Phosphate Buffered Saline (being, 137 mM NaCl, 2.7 mM KCl, 10 mM Na2HPO4, 1.8 mM K2HPO4, pH 7.4) and the material quantified and the degree of Tb conjugation determined by measuring the absorption at 280 nm and 343 nm.\nThe integrity of the conjugated material was determined by analytical size exclusion chromatography on a S200 HR 10×300 column (GE Healthcare). Typical conjugation ratios were 4:1 Tb:IgE-Fc.\n400 nmoles FcεR1α(Y131A mutant) (Cook et al., 1997) at 400 μM in 100 mM NaOAc pH 5.5 was reacted with 1 mM final concentration sodium periodate (in 100 mM NaOAc, pH 5.5) for 60 minutes at 22° C. Oxidation was quenched with the addition of 40 μL of ethanediol and incubation for 60 minutes at 22° C. The protein was buffer exchanged in to conjugation buffer (50 mM NaHCO3, 150 mM NaCl, pH 9.5) and concentrated to 750 μM.\n175 nmoles of protein was added to 1 mg of Alexa Fluor™ 488 hydrazide (Invitrogen) and incubated for 16 hours at 22° C. Sodium cyanoborohydride (at 100 mM in conjugation buffer) was added to a final concentration of 1 mM and incubated for 60 minutes on ice. The protein was buffer exchanged into Phosphate Buffered Saline (being, 137 mM NaCl, 2.7 mM KCl, 10 mM Na2HPO4, 1.8 mM K2HPO4, pH 7.4) and the material quantified and the degree of Alexa Fluor™ 488 conjugation determined by measuring the absorption at 280 nm and 495 nm.\nThe integrity of the conjugated material was determined by analytical size exclusion chromatography on a S200 HR 10×300 column (GE Healthcare). Typical conjugation ratios were 2:1 Alexa Fluor™488: sFcεR1α\nThe aim was to measure binding of IgE-Tb to receptor, and the inhibition thereof by compounds, using an in vitro Fluorescence Resonance Energy Transfer (FRET) Assay.\nFRET reagents used were IgE labelled with Terbium (FRET donor), and soluble IgE receptor FcεRIα with a Y131A mutation, labelled with Alexa Fluor™ 488 (FRET acceptor). Unlabelled FcεRIα was also used to generate a background control. The assay buffer consisted of 20 mM Tris pH7.2, 150 mM NaCl, and 0.002% Tween, 1% DMSO.\nThe assay was conducted according to the following: Each assay reaction was conducted in a volume of 25 μl in a 384-well half-volume plate. 10 point compound serial dilutions (3-fold) were generated in DMSO at a concentration of ×50 that of the final assay concentration (FAC). Compound solutions were then prepared by IgE-Tb diluting 10-fold in assay buffer. For the assay, 5 μl of diluted compound was added to 10 μl of, followed by addition of 10 μl FcεRIα-Y131A-AF488. FRET reagents FACs were 5 nM IgE-Tb, 25 nM FcεRIα-Y131A-AF488. Usually the top FAC of compound in the assay was 10 μM. The final DMSO concentration was 2%. The minimum signal (MIN) was measured by adding 5 μl unlabelled FcεRIα at 1 μM (FAC=200 nM) to the FRET reagents. The maximum FRET signal (MAX) was measured in wells containing FRET reagents but no compound.\nThe assay was incubated for 2 hours at room temperature, protected from light and evaporation, and with gentle agitation.\nMeasurement of FRET for each well was carried out by exciting at 330 nm and measuring emission at 495/520 nm using an Envision plate reader (Perkin Elmer). FRET ratio was calculated as follows: Emission at 520/Emission at 495×1000.\nThe FRET ratio was used for the data analysis.\nZ′ was calculated as follows (σ=standard deviation and μ=mean): 1−((3×σ^MAX)+(3×σMIN))/(μMAX−μMIN)\nZ′ above 0.5 was considered a good assay.\nBackground signal (MIN) was subtracted from all wells. Using the background subtracted values, the percent inhibition by compound in each test-well was calculated as follows: 100−Test-well FRET ratio/MAX FRET ratio×100.\nPercent inhibition was plotted against compound concentration. […]", "units": {"IC50": "nM"}, "values": [
      {"molecule": "CC(C)CNS(=O)(=O)c1cc2c(c3cnc(C4CC4)cc13)CCCC2", "note": "[Example 1, 3-cyclopropyl-N-(2-methylpropyl)-7,8,9,10-tetrahydrobenzo[h]isoquinoline-5-sulfonamide]", "IC50": "100 to 1000"},
      {"molecule": "CCNC(=O)NC1CCCc2cc(S(=O)(=O)NCC(C)C)c3cc(C4CC4)ncc3c21", "note": "(stereo not drawn) [Example 3, 1-[3-cyclopropyl-5-(2-methylpropylsulfamoyl)-7,8,9,10-tetrahydrobenzo[h]isoquinolin-10-yl]-3-ethylurea]", "IC50": "100 to 1000"},
      {"molecule": "CCNC(=O)NC1CCCc2c1cc(S(=O)(=O)NCC(C)C)c1cc(C3CC3)ncc21", "note": "(stereo not drawn) [Example 2, 1-[3-cyclopropyl-5-(2-methylpropylsulfamoyl)-7,8,9,10-tetrahydrobenzo[h]isoquinolin-7-yl]-3-ethylurea]", "IC50": "50 to 100"},
      {"molecule": "Cn1nnc(-c2ccc(NC3CCCc4c3cc(S(=O)(=O)NCC(C)(C)F)c3cc(C5CC5)ncc43)cn2)n1", "note": "(stereo not drawn) [Example 6]", "IC50": "10 to 50"},
      {"molecule": "CCOC(=O)c1ncn(C2CCCc3c2cc(S(=O)(=O)NCC(C)(C)F)c2cc(C4CC4)ncc32)c1N", "note": "(stereo not drawn) [Example 9, ethyl 5-amino-1-[3-cyclopropyl-5-[(2-fluoro-2-methylpropyl)sulfamoyl]-7,8,9,10-tetrahydrobenzo[h]isoquinolin-7-yl]imidazole-4-carboxylate]", "IC50": "100 to 1000"},
      {"molecule": "CC(C)CNS(=O)(=O)c1cc2c(c3cnc(C4CC4)cc13)C(NS(C)(=O)=O)CCC2", "note": "(stereo not drawn) [Example 5, 3-cyclopropyl-10-(methanesulfonamido)-N-(2-methylpropyl)-7,8,9,10-tetrahydrobenzol[h]isoquinoline-5-sulfonamide]", "IC50": "1000 to 5000"},
      {"molecule": "CC(C)CNS(=O)(=O)c1cc2c(c3cnc(C4CC4)cc13)CCCC2NS(C)(=O)=O", "note": "(stereo not drawn) [Example 4, 3-cyclopropyl-7-(methanesulfonamido)-N-(2-methylpropyl)-7,8,9,10-tetrahydrobenzo[h]isoquinoline-5-sulfonamide]", "IC50": "100 to 1000"},
      {"molecule": "Cc1cc(NC(=O)NC2CCCc3c2cc(S(=O)(=O)NCC(C)(C)F)c2cc(C4CC4)ncc32)n(C)n1", "note": "(stereo not drawn) [Example 11, 1-[3-cyclopropyl-5-[(2-fluoro-2-methylpropyl)sulfamoyl]-7,8,9,10-tetrahydrobenzo[h]isoquinolin-7-yl]-3-(2,5-dimethylpyrazol-3-yl) urea]", "IC50": "100 to 1000"},
      {"molecule": "Cn1nnc(-c2ccc(NC3CCCc4cc(S(=O)(=O)NCC(C)(C)F)c5cc(C6CC6)ncc5c43)cn2)n1", "note": "(stereo not drawn) [Example 8, 3-cyclopropyl-N-(2-fluoro-2-methylpropyl)-10-[[6-(2-methyltetrazol-5-yl)pyridin-3-yl]amino]-7,8,9,10-tetrahydrobenzo[h]isoquinoline-5-sulfonamide]", "IC50": "100 to 1000"},
      {"molecule": "CCOC(=O)c1cn(C2CCCc3c2cc(S(=O)(=O)NCC(C)(C)F)c2cc(C4CC4)ncc32)cn1", "note": "(stereo not drawn) [Example 12, ethyl 1-[3-cyclopropyl-5[(2-fluoro-2-methylpropyl)sulfamoyl]-7,8,9,10-tetrahydrobenzo[h]isoquinolin-7-yl]imidazole-4-carboxylate]", "IC50": "100 to 1000"},
      {"molecule": "Cc1cc(Nc2nncn2C2CCCc3c2cc(S(=O)(=O)NCC(C)(C)F)c2cc(C4CC4)ncc32)n(C)n1", "note": "(stereo not drawn) [Example 7, 3-cyclopropyl-7-[3-[(2,5-dimethylpyrazol-3-yl)amino]-1,2,4-triazol-4-yl]-N-(2-fluoro-2-methylpropyl)-7,8,9,10-tetrahydrobenzo[h]isoquinoline-5-sulfonamide]", "IC50": "100 to 1000"},
      {"molecule": "Cc1noc(-c2cncc(NC3CCCc4c3cc(S(=O)(=O)NCC(C)(C)F)c3cc(C5CC5)ncc43)c2)n1", "note": "(stereo not drawn) [Example 10, 3-cyclopropyl-N-(2-fluoro-2-methylpropyl)-7-[[5-(3-methyl-1,2,4-oxadiazol-5-yl)pyridin-3-yl]amino]-7,8,9,10-tetrahydrobenzo[h]isoquinoline-5-sulfonamide]", "IC50": "50 to 100"}
    ]}
  ]
}
